≈ marks a conversion by molar mass, not a printed value.

What all share (experiment): Test Example 2 minimum inhibitory concentration
Format in all cases: cell-based

In assay [1] the test system is Candida glabrata (JCM3761 Strain). The conditions noted are these: Nakaseomyces glabratus, Sabouraud medium, 30° C. for 72 hours. As to the method: (§1) Test Microbial Strains: Candida albicans (NBRC1594 Strain), Candida glabrata (JCM3761 Strain), Cryptococcus neoformans (JCM3685 Strain), Aspergillus fumigatus (JCM10253), Aspergillus niger (ATCC6725), Trichophyton rubrum (ATCCMYA4607), Trichophyton interdegitale (ATCC9533), Microsporum canis (NBRC7863), and Arthroderma vanbreuseghemii (JCM1891)
(§2) The Candida microbes and the Cryptococcus microbe were cultured at 30° C. for 72 hours and the other microbes were cultured at 25° C. for 120 hours in Sabouraud media, and then suspended in 5 mL of PBS (containing 8 g of sodium chloride, 2.9 g of disodium hydrogen phosphate, 0.2 g of potassium chloride, and 0.2 g of potassium dihydrogen phosphate in 1000 mL) containing Tween80 (polyoxyethylene sorbitan monooleate: Kanto Chemical Co., Inc.) (1% (V/V))), and the resulting suspension was filtered through a cell strainer (φ40 μm). Spores were recovered from the filtrate by centrifugation (3500 rpm, 5 minutes) and washed twice with physiological saline, and then a spore suspension was prepared (1×10^6 spores/mL). 50 μL of the spore suspension was inoculated into a Sabouraud medium to which compound No. 6 dissolved in DMSO was added to have a predetermined concentration. The Candida microbes and the Cryptococcus microbe were cultured at 30° C. for 72 hours and the other microbes were cultured at 25° C. for 120 hours, then the presence or absence of colony growth was investigated, and the minimum inhibitory concentration was determined.

In assay [2] the test system is Cryptococcus neoformans (JCM3685 Strain). The following applies: Sabouraud medium, 30° C. for 72 hours. As to the method: as §1, §2
For assay [3], the system named is Aspergillus fumigatus (JCM10253). The conditions noted are these: Sabouraud medium, 25° C. for 120 hours. How it is done:
as §1, §2

The subject of assay [4] is Trichophyton interdegitale (ATCC9533). The conditions noted are these: Sabouraud medium, 25° C. for 120 hours. How it is done:
as §1, §2

For assay [5], the system named is Aspergillus niger (ATCC6725). The conditions noted are these: Sabouraud medium, 25° C. for 120 hours. As to the method: as §1, §2
The test system of assay [6] is Microsporum canis (NBRC7863). The conditions noted are these: Sabouraud medium, 25° C. for 120 hours. As to the method:
as §1, §2

Assay [7] has as its system Trichophyton rubrum (ATCCMYA4607). The following applies: Sabouraud medium, 25° C. for 120 hours. As to the method:
as §1, §2

Assay [8] concerns Arthroderma vanbreuseghemii (JCM1891). The conditions noted are these: Trichophyton mentagrophytes, Sabouraud medium, 25° C. for 120 hours. As to the method:
as §1, §2

The test system of assay [9] is Candida albicans (NBRC1594 Strain). The following applies: Sabouraud medium, 30° C. for 72 hours. How it is done:
as §1, §2

In the case of `Cc1ccc(-c2nc(C#N)[nH]c2Cl)cc1Cl` [Compound No. 6, 5-Chloro-4-(3-chloro-4-methylphenyl)-1H-imidazole-2-carbonitrile], the MIC in assay [1] was found to be 250 µg/mL (≈ 992 µM); in assay [2], 31.3 µg/mL (≈ 124 µM); in [3], 62.5 µg/mL (≈ 248 µM); in assay [4] it was 62.5 µg/mL (≈ 248 µM); in assay [5] it was 62.5 µg/mL (≈ 248 µM); in [6], 125 µg/mL (≈ 496 µM). Besides, the MIC was 31.3 µg/mL (≈ 124 µM) in assay [7], 7.8 µg/mL (≈ 30.9 µM) in assay [8] and 250 µg/mL (≈ 992 µM) in assay [9].

The values above are taken from patent US20260115170A1, “Method of Ameliorating a Symptom or a Disease in a Human Caused by Fungus” (ISHIHARA SANGYO KAISHA, LTD., priority 2020, published 2026).
